This passage reports IC50 results from patent publication US9809573B2, “Substituted pyridine derivatives useful as GSK-3 inhibitors” (priority 2013, dated 2017).

For test [1], the target named is GSK3α (Homo sapiens, UniProt P49840). In words: biochemical. The method, then:
(§1) The kinase assay was performed in V-bottom 384-well plates. […] The reaction was incubated at room temperature for 20 hours and terminated by adding 45 μl of 35 mM EDTA to each sample. The reaction mixture was analyzed on the Caliper LabChip3000 (Caliper, Hopkinton, Mass.) by electrophoretic separation of the unphosphorylated substrate and phosphorylated product. […] Compounds were dissolved at 10 mM in dimethylsulfoxide (DMSO) and evaluated at eleven concentrations. IC50 values were derived by non-linear regression analysis.

For test [2], the target named is GSK3β (Homo sapiens, UniProt P49841). In words: GSK3β kinase assay (Caliper LabChip3000, fluoresceinated peptide substrate). It is filed as biochemical. The method, then: as §1
Setting [3] is: second value of the cell, 250 pM enzyme, 20 uM ATP, 20 hours at room temperature, read-out: GSK3β/α (nM): GSK3α IC50.
[4] abbreviates: first value of the cell, 250 pM enzyme, 20 uM ATP, 20 hours at room temperature, read-out: GSK3β/α (nM): GSK3β IC50.

Like-named read-outs stand apart in the source and are kept apart here.

Sequence of GSK3β (P49841 whole entry, species assumed): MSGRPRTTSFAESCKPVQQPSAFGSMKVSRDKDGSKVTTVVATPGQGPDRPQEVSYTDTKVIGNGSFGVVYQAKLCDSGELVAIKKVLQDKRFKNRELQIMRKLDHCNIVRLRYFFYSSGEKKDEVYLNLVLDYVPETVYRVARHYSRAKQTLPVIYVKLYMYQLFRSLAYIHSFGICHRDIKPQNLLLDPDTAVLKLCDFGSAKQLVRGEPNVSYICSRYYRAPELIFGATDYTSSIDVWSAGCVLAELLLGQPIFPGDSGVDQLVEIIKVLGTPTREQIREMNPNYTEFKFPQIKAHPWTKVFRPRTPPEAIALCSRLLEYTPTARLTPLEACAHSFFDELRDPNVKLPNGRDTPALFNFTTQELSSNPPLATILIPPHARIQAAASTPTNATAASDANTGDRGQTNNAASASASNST
Sequence of GSK3α (P49840 whole entry, species assumed): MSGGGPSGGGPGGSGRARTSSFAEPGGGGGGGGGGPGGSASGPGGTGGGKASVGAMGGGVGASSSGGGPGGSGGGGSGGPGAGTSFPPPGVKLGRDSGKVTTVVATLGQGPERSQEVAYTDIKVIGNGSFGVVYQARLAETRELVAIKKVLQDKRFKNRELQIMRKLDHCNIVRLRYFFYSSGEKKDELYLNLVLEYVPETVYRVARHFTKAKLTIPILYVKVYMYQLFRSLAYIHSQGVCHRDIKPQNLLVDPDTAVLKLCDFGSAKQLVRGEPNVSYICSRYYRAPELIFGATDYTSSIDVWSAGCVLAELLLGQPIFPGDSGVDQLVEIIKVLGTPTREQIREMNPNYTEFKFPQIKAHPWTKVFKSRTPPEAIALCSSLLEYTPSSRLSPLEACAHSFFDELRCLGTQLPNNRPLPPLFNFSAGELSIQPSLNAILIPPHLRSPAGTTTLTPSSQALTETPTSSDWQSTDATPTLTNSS

As for `Cc1ncc(-c2cncc(NC(=O)c3ccnc(NC(=O)C4CC4)c3)c2)s1` [Example 159, 2-(cyclopropanecarboxamido)-N-(5-(2-methylthiazol-5-yl)pyridin-3-yl)isonicotinamide], the IC50 in test [1] (setting [3]) came out at 1.9 nM; in test [2] (setting [4]) it was 4.7 nM.
For `O=C(Nc1cncc(-c2ccccn2)c1)c1ccnc(NC(=O)C2CC2)c1` [Example 128, N-([2,3′-bipyridin]-5′-yl)-2-(cyclopropanecarboxamido)isonicotinamide], the IC50 was 2.6 nM in test [1] (setting [3]) and 0.5 nM in test [2] (setting [4]).
As for `O=C(Nc1cncc(-c2ccoc2)c1)c1ccnc(NC(=O)C2CC2)c1` [Example 121, 2-(cyclopropanecarboxamido)-N-(5-(furan-3-yl)pyridin-3-yl)isonicotinamide], the IC50 in test [1] (setting [3]) was 0.99 nM; in test [2] (setting [4]), 2.4 nM.
In the case of `O=C(Nc1cncc(-c2cccc(Cl)c2Cl)c1)c1ccnc(NC(=O)C2CC2)c1` [Example 138, 2-(cyclopropanecarboxamido)-N-(5-(2,3-dichlorophenyl)pyridin-3-yl)isonicotinamide], the values for the IC50 in test [1] (setting [3]) and in test [2] (setting [4]) were 1.8 nM and 10.5 nM, respectively.
Take `O=C(Nc1cncc(-c2ccccc2OC(F)(F)F)c1)c1ccnc(NC(=O)C2CC2)c1` [Example 149, 2-(cyclopropanecarboxamido)-N-(5-(2-(trifluoromethoxy)phenyl)pyridin-3-yl)isonicotinamide]: the results for the IC50 in test [1] (setting [3]) and in test [2] (setting [4]) were 1.75 nM and 8.5 nM, respectively.
In the case of `Cc1cc(-c2cncc(NC(=O)c3ccnc(NC(=O)C4CC4)c3)c2)c(C)s1` [Example 135, 2-(cyclopropanecarboxamido)-N-(5-(2,5-dimethylthiophen-3-yl)pyridin-3-yl)isonicotinamide], the IC50 in test [2] (setting [4]) came out at 2.7 nM.
In the case of `O=C(Nc1cncc(C2CCCC2)c1)c1ccnc(NC(=O)C2CC2)c1` [Example 132, N-(5-cyclopentylpyridin-3-yl)-2-(cyclopropanecarboxamido)isonicotinamide], the figures for the IC50 in test [1] (setting [3]) and in test [2] (setting [4]) were 8 nM and 4.1 nM, respectively.
In the case of `O=C(Nc1cncc(-c2ccccc2Cl)c1)c1ccnc(NC(=O)C2CC2)c1` [Example 127, N-(5-(2-chlorophenyl)pyridin-3-yl)-2-(cyclopropanecarboxamido)isonicotinamide], the IC50 in test [1] (setting [3]) worked out at 0.54 nM; in test [2] (setting [4]) it was 1.3 nM.
Take `CN(C)c1ccccc1-c1cncc(NC(=O)c2ccnc(NC(=O)C3CC3)c2)c1` [Example 154, 2-(cyclopropanecarboxamido)-N-(5-(2-(dimethylamino)phenyl)pyridin-3-yl)isonicotinamide]: the results for the IC50 in test [1] (setting [3]) and in test [2] (setting [4]) were 18 nM and 40 nM, respectively.
On the same counts, the results for “2-((1,3-Trans)-3-chlorocyclobutanecarboxamido)-N-(4-phenylpyridin-3-yl)isonicotinamide [Example 220]” are 0.22 nM and 0.37 nM.
The matching figures for `O=C(Nc1cncc(-c2ccsc2)c1)c1ccnc(NC(=O)C2CC2)c1` [Example 117, 2-(cyclopropanecarboxamido)-N-(5-(thiophen-3-yl)pyridin-3-yl)isonicotinamide]: 1.9 nM and 1.2 nM.
Consider `O=C(Nc1cncc(-c2cccc3cccnc23)c1)c1ccnc(NC(=O)C2CC2)c1` [Example 143, 2-(cyclopropanecarboxamido)-N-(5-(quinolin-8-yl)pyridin-3-yl)isonicotinamide], for which the IC50 in test [1] (setting [3]) came to 35 nM; in test [2] (setting [4]) it was 190 nM.
For `O=C(Nc1cncc2c1CCCC2)c1ccnc(NC(=O)C2CC2)c1` [Example 21, 2-(Cyclopropanecarboxamido)-N-(5,6,7,8-tetrahydroisoquinolin-4-yl)isonicotinamide], the IC50 in test [1] (setting [3]) worked out at 3.3 nM; in test [2] (setting [4]) it was 13 nM.
The matching figures for `O=C(Nc1cncc(C(F)(F)F)c1)c1ccnc(NC(=O)C2CC2)c1` [Example 150, 2-(cyclopropanecarboxamido)-N-(5-(trifluoromethyl)pyridin-3-yl)isonicotinamide]: 17 nM and 88 nM.
In the case of `O=C1CCC(C(=O)Nc2cc(C(=O)Nc3cnccc3-c3ccccc3)ccn2)C1` (stereo not shown) [Example 229, 2-(3-Oxocyclopentanecarboxamido)-N-(4-phenylpyridin-3-yl)isonicotinamide], the IC50 in test [2] (setting [4]) came to 1.6 nM.
As for `O=C(Nc1cncc(-c2cc(Cl)ccc2F)c1)c1ccnc(NC(=O)C2CC2)c1` [Example 153, N-(5-(5-chloro-2-fluorophenyl)pyridin-3-yl)-2-(cyclopropanecarboxamido)isonicotinamide], the IC50 in test [1] (setting [3]) was 1.6 nM; in test [2] (setting [4]) it was 5.3 nM.
As to `O=C(Nc1cncc(-c2ccc(Cl)cc2)c1)c1ccnc(NC(=O)C2CC2)c1` [Example 133, N-(5-(4-chlorophenyl)pyridin-3-yl)-2-(cyclopropanecarboxamido)isonicotinamide], the IC50 in test [1] (setting [3]) was 4.4 nM; in test [2] (setting [4]), 3.3 nM.
With `O=C(Nc1cncc(-c2c(F)cccc2F)c1)c1ccnc(NC(=O)C2CC2)c1` [Example 141, 2-(cyclopropanecarboxamido)-N-(5-(2,6-difluorophenyl)pyridin-3-yl)isonicotinamide], the IC50 amounted to 4.3 nM in test [1] (setting [3]) and 21 nM in test [2] (setting [4]).
On to `Cc1ccccc1-c1cncc(NC(=O)c2ccnc(NC(=O)C3CC3)c2)c1` [Example 122, 2-(cyclopropanecarboxamido)-N-(5-(o-tolyl)pyridin-3-yl)isonicotinamide], for which the IC50 in test [1] (setting [3]) was 3.3 nM; in test [2] (setting [4]), 7.3 nM.
Consider `N#Cc1cc(F)ccc1-c1ccncc1NC(=O)c1ccnc(NC(=O)C2CC2)c1` [Example 89, N-(4-(2-cyano-4-fluorophenyl)pyridin-3-yl)-2-(cyclopropanecarboxamido)isonicotinamide], for which the IC50 in test [1] (setting [3]) was found to be 190 nM; in test [2] (setting [4]) it was 470 nM.
As for `CCCOc1ccccc1-c1cncc(NC(=O)c2ccnc(NC(=O)C3CC3)c2)c1` [Example 146, 2-(cyclopropanecarboxamido)-N-(5-(2-propoxyphenyl)pyridin-3-yl)isonicotinamide], the IC50 in test [1] (setting [3]) amounted to 3.4 nM; in test [2] (setting [4]) it was 4.5 nM.
As for `O=C1CC(C(=O)Nc2cc(C(=O)Nc3cnccc3-c3ccccc3)ccn2)C1` [Example 218, 2-(3-Oxocyclobutanecarboxamido)-N-(4-phenylpyridin-3-yl)isonicotinamide], the IC50 in test [2] (setting [4]) turned out to be 3.9 nM.
As for `COc1cccc(-c2cncc(NC(=O)c3ccnc(NC(=O)C4CC4)c3)c2)c1F` [Example 139, 2-(cyclopropanecarboxamido)-N-(5-(2-fluoro-3-methoxyphenyl)pyridin-3-yl)isonicotinamide], the IC50 was found to be 0.81 nM in test [1] (setting [3]) and 3.7 nM in test [2].
Turning to `O=C(Nc1cnccc1-c1ccccc1)c1ccnc(NC(=O)C2CC(Cl)C2)c1` (stereo not shown) [Example 215, 2-(3-Cholorocyclobutanecarboxamido)-N-(4-phenylpyridin-3-yl)isonicotinamide], the IC50 in test [1] (setting [3]) is 0.25 nM; in test [2] (setting [4]), 0.4 nM.
As to `O=C(Nc1cncc(-c2cccc(F)c2F)c1)c1ccnc(NC(=O)C2CC2)c1` [Example 137, 2-(cyclopropanecarboxamido)-N-(5-(2,3-difluorophenyl)pyridin-3-yl)isonicotinamide], the IC50 is 0.74 nM in test [1] and 3.4 nM in test [2].
Take `CC(C)Oc1ccccc1-c1cncc(NC(=O)c2ccnc(NC(=O)C3CC3)c2)c1` [Example 136, 2-(cyclopropanecarboxamido)-N-(5-(2-isopropoxyphenyl)pyridin-3-yl)isonicotinamide]: the IC50 in test [1] (setting [3]) was found to be 5.4 nM; in test [2] (setting [4]), 19 nM.
With `O=C(Nc1cncc(-c2csc3ccccc23)c1)c1ccnc(NC(=O)C2CC2)c1` [Example 129], the IC50 in test [1] (setting [3]) worked out at 7 nM; in test [2] (setting [4]), 5.1 nM.
“2-((1,3-Cis)-3-chlorocyclobutanecarboxamido)-N-(4-phenylpyridin-3-yl)isonicotinamide [Example 221]”: the IC50 stood at 0.09 nM in test [1] (setting [3]) and 0.16 nM in test [2] (setting [4]).
For `Cc1cscc1-c1cncc(NC(=O)c2ccnc(NC(=O)C3CC3)c2)c1` [Example 130, 2-(cyclopropanecarboxamido)-N-(5-(4-methylthiophen-3-yl)pyridin-3-yl)isonicotinamide], the IC50 in test [1] (setting [3]) is 0.41 nM; in test [2] (setting [4]), 2.5 nM.
For `O=C(Nc1cncc(-c2cccnc2)c1)c1ccnc(NC(=O)C2CC2)c1` [Example 125, N-([3,3′-bipyridin]-5-yl)-2-(cyclopropanecarboxamido)isonicotinamide], the values for the IC50 in test [1] (setting [3]) and in test [2] (setting [4]) were 0.86 nM and 2 nM, respectively.
Regarding `O=C(Nc1cncc(-c2cccc(Cl)c2F)c1)c1ccnc(NC(=O)C2CC2)c1` [Example 140, N-(5-(3-chloro-2-fluorophenyl)pyridin-3-yl)-2-(cyclopropanecarboxamido)isonicotinamide], the values for the IC50 in test [1] (setting [3]) and in test [2] (setting [4]) were 2.8 nM and 13 nM, respectively.
For the compound `O=C(Nc1cncc(-c2cccc(F)c2)c1)c1ccnc(NC(=O)C2CC2)c1` [Example 126, 2-(cyclopropanecarboxamido)-N-(5-(3-fluorophenyl)pyridin-3-yl)isonicotinamide], the figures for the IC50 in test [1] (setting [3]) and in test [2] (setting [4]) were 1.1 nM and 2.5 nM, respectively.
The matching figures for `Cn1cc(-c2cncc(NC(=O)c3ccnc(NC(=O)C4CC4)c3)c2)cn1` [Example 152, 2-(cyclopropanecarboxamido)-N-(5-(1-methyl-1H-pyrazol-4-yl)pyridin-3-yl)isonicotinamid]: 1.4 nM and 4.9 nM.
`CC(C)c1ccccc1-c1cncc(NC(=O)c2ccnc(NC(=O)C3CC3)c2)c1` [Example 134, 2-(cyclopropanecarboxamido)-N-(5-(2-isopropylphenyl)pyridin-3-yl)isonicotinamide]: the IC50 in test [2] (setting [4]) turned out to be 2.7 nM.
